According to patent US9006242B2, “Substituted benzene compounds” (Epizyme, Inc., priority 2012, dated 2015):
Where two headings read alike, the source gives them in different places.

How the values were obtained:
CYP2C19 = CYP2C19 (Homo sapiens (Human), UniProt P33261); conditions: read-out: Reversible inhibition IC50 CYP2C19; human liver microsomes
[1] = Metabolic stability in human liver microsomes; conditions: for metabolic clearance in human liver microsomes (in words): HLM; for CLint scaled: human, human liver microsomes, pH 7.4
CYP3A4/5 [2] = test: Time-dependent inactivation (TDI) of CYP3A4/5 in human liver microsomes; format: in vitro ADME; conditions: for inactivation of CYP3A4/5 (in words): using midazolam as probe
CYP3A4/5 [3] = test: in vitro; conditions: human, pooled human liver microsomes
[4] = Metabolic stability in rat liver microsomes; conditions: pH 7.4
CYP2B6 = test: CYP induction in cryopreserved human hepatocytes (mRNA), CYP2B6; format: in vitro ADME; conditions: positive control phenobarbital
CYP2C9 [5] = test: CYP induction in cryopreserved human hepatocytes (mRNA), CYP2C9; format: in vitro ADME; conditions: positive control rifampicin
Karpas-422 xenograft = test: Efficacy study in Karpas-422 xenograft model; format: in vivo, mice
[6] = Metabolic stability in dog liver microsomes; conditions: pH 7.4
[7] = Metabolic stability in monkey liver microsomes; conditions: cynomolgus monkey, pH 7.4
CYP1A [8] = test: in vitro; conditions: human, pooled human liver microsomes, pH 7.4
CYP3A = test: CYP induction in cryopreserved human hepatocytes (mRNA), CYP3A; format: in vitro ADME; conditions: positive control rifampicin
CYP2C9 [9] = test: in vitro; conditions: human, pooled human liver microsomes, pH 7.4
CYP2C8 = CYP2C8 (Homo sapiens (Human), UniProt P10632); test: Reversible CYP inhibition in pooled human liver microsomes, CYP2C8; conditions: read-out: Reversible inhibition IC50 CYP2C8
[10] = tested on: cryopreserved human hepatocytes; test: Fraction of hepatocytes remaining (DAPI cell count) in CYP induction study; format: cell-based; conditions: 48 hours
Method: After completion of the incubation, the cells were washed with DPBS. After washing with DPBS, the cells were fixed using 3.7% p-formaldehyde in DPBS for one hour. The formaldehyde was removed and 0.6 μmol/L DAPI in DPBS was added. The cells were stained by DAPI for 20 minutes and then washed three times with DPBS. Cells were counted using an ArrayScan II (Cellomics, Pittsburgh, Pa.) with a 5× objective lens. Fraction of hepatocytes remaining was calculated using the number of cells found at a treatment condition divided by cells found with the vehicle control.

CYP1A [11] = test: CYP induction in cryopreserved human hepatocytes (mRNA), CYP1A; format: in vitro ADME; conditions: positive control β-naphthoflavone
[12] = Metabolic stability in mouse liver microsomes; conditions: pH 7.4
[13] = tested on: human cytochromes P450 (CYP); test: Reversible CYP inhibition in human liver microsomes, overall assessment
[14] = format: in vivo; conditions: oral, BID, up to 28 days, Karpas-422 xenograft mice
CYP2D6 = CYP2D6 (Homo sapiens (Human), UniProt P10635); test: Reversible CYP inhibition in pooled human liver microsomes, CYP2D6; conditions: read-out: Reversible inhibition IC50 CYP2D6
EZH2 (PRC2 complex) = EZH2 (PRC2 complex) (Homo sapiens (Human), UniProt Q15910); test: PRC2 enzyme assay on peptide substrate (EZH2 peptide v2)
[15] = target: wild-type EZH2 (PRC2 complex) (Homo sapiens (Human), UniProt Q15910); test: Wild-type PRC2 enzyme assay (WT EZH2)
[16] = pH 7.4, probe testosterone (250 μmol/L), CYP3A4/5, human liver microsomes, read-out: Time-Dependent Inactivation KI

Sequence of CYP2C19 (P33261 whole entry): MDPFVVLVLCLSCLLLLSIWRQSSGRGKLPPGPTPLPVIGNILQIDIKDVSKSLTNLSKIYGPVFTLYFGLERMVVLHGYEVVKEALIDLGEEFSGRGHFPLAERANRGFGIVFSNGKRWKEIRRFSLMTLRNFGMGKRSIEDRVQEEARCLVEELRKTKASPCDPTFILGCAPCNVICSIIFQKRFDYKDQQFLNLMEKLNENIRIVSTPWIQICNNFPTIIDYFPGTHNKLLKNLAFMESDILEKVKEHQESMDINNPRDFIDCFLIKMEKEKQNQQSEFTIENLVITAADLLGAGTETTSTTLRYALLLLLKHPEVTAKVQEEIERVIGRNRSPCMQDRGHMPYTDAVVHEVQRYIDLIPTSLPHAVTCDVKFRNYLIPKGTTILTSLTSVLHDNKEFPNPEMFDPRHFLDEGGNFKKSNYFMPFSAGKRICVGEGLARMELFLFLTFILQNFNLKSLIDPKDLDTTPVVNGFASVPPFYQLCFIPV
Sequence of CYP2D6 (P10635 whole entry): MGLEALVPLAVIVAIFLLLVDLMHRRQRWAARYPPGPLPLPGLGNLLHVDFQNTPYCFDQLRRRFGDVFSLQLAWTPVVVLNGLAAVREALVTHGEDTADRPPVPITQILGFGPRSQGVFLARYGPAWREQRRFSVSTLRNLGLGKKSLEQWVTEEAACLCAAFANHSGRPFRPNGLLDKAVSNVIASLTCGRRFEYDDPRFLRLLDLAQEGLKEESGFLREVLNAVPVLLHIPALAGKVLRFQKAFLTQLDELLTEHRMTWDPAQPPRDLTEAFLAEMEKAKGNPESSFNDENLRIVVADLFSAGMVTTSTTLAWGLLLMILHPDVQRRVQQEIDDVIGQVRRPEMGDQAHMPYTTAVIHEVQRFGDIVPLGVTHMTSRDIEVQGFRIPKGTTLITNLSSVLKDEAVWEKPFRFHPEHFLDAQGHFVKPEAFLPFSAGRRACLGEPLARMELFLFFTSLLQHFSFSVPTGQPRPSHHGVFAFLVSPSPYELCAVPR
Sequence of CYP2C8 (P10632 whole entry): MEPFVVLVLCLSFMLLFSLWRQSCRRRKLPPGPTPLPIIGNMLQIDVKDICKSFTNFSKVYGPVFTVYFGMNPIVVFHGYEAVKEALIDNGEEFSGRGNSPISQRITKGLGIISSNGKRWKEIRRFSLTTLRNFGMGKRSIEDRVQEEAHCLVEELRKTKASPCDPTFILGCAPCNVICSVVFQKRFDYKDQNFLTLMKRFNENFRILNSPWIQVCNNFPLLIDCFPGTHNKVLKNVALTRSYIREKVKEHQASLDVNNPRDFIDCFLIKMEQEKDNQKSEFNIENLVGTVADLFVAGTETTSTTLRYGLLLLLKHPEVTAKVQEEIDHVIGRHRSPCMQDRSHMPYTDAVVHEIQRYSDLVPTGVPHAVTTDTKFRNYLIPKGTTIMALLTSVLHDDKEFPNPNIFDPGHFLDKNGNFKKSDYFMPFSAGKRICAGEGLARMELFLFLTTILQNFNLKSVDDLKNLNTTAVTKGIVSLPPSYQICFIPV
Sequence of wild-type EZH2 (PRC2 complex) (Q15910 other isoform, or with tags, fused parts or gaps): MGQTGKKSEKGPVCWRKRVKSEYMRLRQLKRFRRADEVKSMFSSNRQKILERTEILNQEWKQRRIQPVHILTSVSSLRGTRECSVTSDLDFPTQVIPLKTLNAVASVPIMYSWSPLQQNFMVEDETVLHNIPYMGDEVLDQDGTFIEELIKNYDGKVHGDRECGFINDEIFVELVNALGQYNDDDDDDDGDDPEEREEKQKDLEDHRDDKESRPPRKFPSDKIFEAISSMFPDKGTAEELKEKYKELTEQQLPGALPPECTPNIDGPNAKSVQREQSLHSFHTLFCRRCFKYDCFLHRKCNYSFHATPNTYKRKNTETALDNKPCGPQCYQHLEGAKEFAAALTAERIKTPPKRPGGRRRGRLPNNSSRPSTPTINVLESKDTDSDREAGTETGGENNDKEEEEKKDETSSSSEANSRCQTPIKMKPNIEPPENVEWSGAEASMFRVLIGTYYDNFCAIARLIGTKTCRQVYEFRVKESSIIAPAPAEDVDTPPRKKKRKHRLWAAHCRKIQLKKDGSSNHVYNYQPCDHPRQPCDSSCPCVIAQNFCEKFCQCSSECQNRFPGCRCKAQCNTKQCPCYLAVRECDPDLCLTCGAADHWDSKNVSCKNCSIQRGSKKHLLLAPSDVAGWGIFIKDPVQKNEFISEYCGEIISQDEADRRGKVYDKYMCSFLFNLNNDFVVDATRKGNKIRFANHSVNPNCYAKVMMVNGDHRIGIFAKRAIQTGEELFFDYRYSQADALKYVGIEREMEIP
Sequence of wild-type EZH2 (PRC2 complex) (O75530 whole entry partner): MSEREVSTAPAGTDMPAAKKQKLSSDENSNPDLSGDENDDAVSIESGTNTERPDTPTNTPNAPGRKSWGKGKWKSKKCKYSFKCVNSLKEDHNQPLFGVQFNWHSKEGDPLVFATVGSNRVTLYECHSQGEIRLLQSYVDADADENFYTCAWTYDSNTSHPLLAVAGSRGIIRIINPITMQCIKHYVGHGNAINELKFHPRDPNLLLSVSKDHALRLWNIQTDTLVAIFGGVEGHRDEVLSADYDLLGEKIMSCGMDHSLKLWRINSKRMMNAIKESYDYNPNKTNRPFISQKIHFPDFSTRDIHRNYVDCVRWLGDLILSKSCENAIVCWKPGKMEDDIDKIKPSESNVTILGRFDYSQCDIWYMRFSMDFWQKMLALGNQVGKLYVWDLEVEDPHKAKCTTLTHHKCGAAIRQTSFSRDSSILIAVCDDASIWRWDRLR
Sequence of wild-type EZH2 (PRC2 complex) (Q15022 whole entry partner): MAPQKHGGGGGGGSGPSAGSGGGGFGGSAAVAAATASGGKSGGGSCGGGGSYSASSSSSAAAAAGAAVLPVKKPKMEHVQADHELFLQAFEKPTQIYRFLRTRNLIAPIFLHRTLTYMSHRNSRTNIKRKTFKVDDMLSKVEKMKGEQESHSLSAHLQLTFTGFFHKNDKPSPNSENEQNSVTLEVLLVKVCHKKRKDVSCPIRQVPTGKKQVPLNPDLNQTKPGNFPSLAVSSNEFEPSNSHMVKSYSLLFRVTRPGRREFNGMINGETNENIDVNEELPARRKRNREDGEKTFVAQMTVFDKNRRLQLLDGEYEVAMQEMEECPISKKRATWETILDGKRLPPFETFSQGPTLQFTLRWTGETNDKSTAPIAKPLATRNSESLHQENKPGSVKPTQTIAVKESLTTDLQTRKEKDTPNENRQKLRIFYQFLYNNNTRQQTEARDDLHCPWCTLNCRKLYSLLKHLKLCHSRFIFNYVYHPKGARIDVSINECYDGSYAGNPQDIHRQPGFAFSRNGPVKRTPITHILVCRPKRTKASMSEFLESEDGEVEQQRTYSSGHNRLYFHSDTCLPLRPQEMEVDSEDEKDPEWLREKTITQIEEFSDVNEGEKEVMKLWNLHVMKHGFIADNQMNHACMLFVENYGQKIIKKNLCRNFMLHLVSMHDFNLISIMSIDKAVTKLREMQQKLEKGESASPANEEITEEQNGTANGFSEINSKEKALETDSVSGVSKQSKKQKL
Sequence of wild-type EZH2 (PRC2 complex) (Q09028 whole entry partner): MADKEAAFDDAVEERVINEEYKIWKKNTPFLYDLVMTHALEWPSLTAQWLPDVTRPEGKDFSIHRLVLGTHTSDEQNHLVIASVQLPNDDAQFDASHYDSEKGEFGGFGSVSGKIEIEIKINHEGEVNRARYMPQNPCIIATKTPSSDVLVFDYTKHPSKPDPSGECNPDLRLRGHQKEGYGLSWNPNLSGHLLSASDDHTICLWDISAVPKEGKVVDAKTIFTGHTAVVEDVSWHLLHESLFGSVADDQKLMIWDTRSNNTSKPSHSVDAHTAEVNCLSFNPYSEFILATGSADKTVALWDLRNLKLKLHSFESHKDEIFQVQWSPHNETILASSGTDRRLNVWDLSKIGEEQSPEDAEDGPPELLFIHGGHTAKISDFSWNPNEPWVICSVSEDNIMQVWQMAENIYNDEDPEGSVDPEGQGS
Sequence of EZH2 (PRC2 complex) (Q15910 other isoform, or with tags, fused parts or gaps): as the sequence (Q15910 other isoform, or with tags, fused parts or gaps) above
Sequence of EZH2 (PRC2 complex) (O75530 whole entry partner): as the sequence (O75530 whole entry partner) above
Sequence of EZH2 (PRC2 complex) (Q15022 whole entry partner): as the sequence (Q15022 whole entry partner) above
Sequence of EZH2 (PRC2 complex) (Q09028 whole entry partner): as the sequence (Q09028 whole entry partner) above

CCN(c1cc(-c2ccc(OCCOC)cc2)cc(C(=O)NCc2c(C)cc(C)[nH]c2=O)c1C)[C@H]1CC[C@H](N(C)C)CC1 [Compound 1, N-((4,6-dimethyl-2-oxo-1,2-dihydropyridin-3-yl)methyl)-5-(((trans)-4-(dimethylamino)-cyclohexyl)(ethyl)-amino)-4′-(2-methoxyethoxy)-4-methyl-[1,1′-biphenyl]-3-carboxamide]
IC50 (CYP2C19): 89.6 µM
metabolic clearance in human liver microsomes (in words) [1]: low metabolic clearance
CLint scaled [1]: 0.63 L/h/kg
KI (inactivation) (CYP3A4/5 [2]; human, human liver microsomes, pH 7.4, CYP3A4/5, footnote to ** not given, read-out: Time-Dependent Inactivation KI, second value in brackets marked **): 3.3 µM
KI (inactivation) (CYP3A4/5 [2]; [16]): 6.4 µM
inactivation of CYP3A4/5 (in words) (CYP3A4/5 [2]): time-, concentration-, and NADPH-dependent inactivation of CYP3A4/5
IC50 (CYP3A4/5 [3]; pH 7.4, probe midazolam): 40.5 µM
IC50 (CYP3A4/5 [3]; pH 7.4, probe testosterone): > 100 µM
CLint scaled [4]: 0.888 L/h/kg
CYP2B6 % Positive Control (CYP2B6; 1 μM): 18.0%
CYP2B6 % Positive Control (CYP2B6; 10 μM): 26.3%
CYP2C9 % Positive Control (CYP2C9 [5]; 1 μM): 43.5%
CYP2C9 % Positive Control (CYP2C9 [5]; 10 μM): 52.6%
tumors large enough for analysis at day 28 (Karpas-422 xenograft; 125 mg/kg BID x28, p.o.): 5 out of 10
tumors large enough for analysis at day 28 (Karpas-422 xenograft; 250 mg/kg BID x28, p.o.): 1 out of 10
tumors large enough for analysis at day 28 (Karpas-422 xenograft; 500 mg/kg BID x28, p.o.): too small for analysis
anti-tumor effect in Karpas-422 xenograft model (in words) (Karpas-422 xenograft; oral, BID, up to 28 days, 62.5-500 mg/kg): tumor stasis and regression
CLint scaled [6]: 0.486 L/h/kg
CLint scaled [7]: 3.52 L/h/kg
IC50 (CYP1A [8]): > 100 µM
CYP3A % Positive Control (CYP3A; 1 μM): 13.9%
CYP3A % Positive Control (CYP3A; 10 μM): 13.3%
IC50 (CYP2C9 [9]): > 100 µM
IC50 (CYP2C8): > 100 µM
% Cell Remaining vs. Control ([10]; 1 μM): 107.44%
% Cell Remaining vs. Control ([10]; 10 μM): 99.00%
CYP1A % Positive Control (CYP1A [11]; 1 μM): 2.8%
CYP1A % Positive Control (CYP1A [11]; 10 μM): 3.0%
CLint scaled [12]: 0.924 L/h/kg
reversible CYP inhibition (in words) [13]: no significant reversible inhibition
tolerability (in words) [14]: well tolerated

CCN(c1cc(C#CCN2CCOCC2)cc(C(=O)NCc2c(C)cc(C)[nH]c2=O)c1C)[C@H]1CC[C@H](N(C)CCOC)CC1 [Compound 2, N-((4,6-dimethyl-2-oxo-1,2-dihydropyridin-3-yl)methyl)-3-(ethyl((trans)-4-((2-methoxyethyl)(methyl)amino)cyclohexyl)amino)-2-methyl-5-(3-morpholinoprop-1-yn-1-yl)benzamide]
IC50 (CYP2C19): > 100 µM
metabolic clearance in human liver microsomes (in words) [1]: low metabolic clearance
CLint scaled [1]: 0.528 L/h/kg
KI (inactivation) (CYP3A4/5 [2]; [16]): 22.3 µM
inactivation of CYP3A4/5 (in words) (CYP3A4/5 [2]): time-, concentration-, and NADPH-dependent inactivation of CYP3A4/5
IC50 (CYP3A4/5 [3]; pH 7.4, probe midazolam): > 100 µM
IC50 (CYP3A4/5 [3]; pH 7.4, probe testosterone): > 100 µM
CLint scaled [4]: 0.888 L/h/kg
IC50 (CYP2D6): > 100 µM
CLint scaled [6]: 2.06 L/h/kg
CLint scaled [7]: 1.97 L/h/kg
IC50 (CYP1A [8]): > 100 µM
IC50 (CYP2C9 [9]): > 100 µM
IC50 (CYP2C8): > 100 µM
% Cell Remaining vs. Control ([10]; 1 μM): 124.70%
% Cell Remaining vs. Control ([10]; 10 μM): 120.90%
CLint scaled [12]: 1.06 L/h/kg
reversible CYP inhibition (in words) [13]: no significant reversible inhibition

CCN(c1cc(C#CC2CCN(C)CC2)cc(C(=O)NCc2c(C)cc(C)[nH]c2=O)c1C)C1CCOCC1 [Compound 105, N-((4,6-Dimethyl-2-oxo-1,2-dihydropyridin-3-yl)methyl)-3-(ethyl(tetrahydro-2H-pyran-4-yl)amino)-2-methyl-5-((1-methylpiperidin-4-yl)ethynyl)benzamide]
IC50 (CYP2C19): 33.6 µM
IC50 (EZH2 (PRC2 complex)): 0.0084 µM
metabolic clearance in human liver microsomes (in words) [1]: low metabolic clearance
CLint scaled [1]: 2.53 L/h/kg
KI (inactivation) (CYP3A4/5 [2]; [16]): 10.2 µM
inactivation of CYP3A4/5 (in words) (CYP3A4/5 [2]): time-, concentration-, and NADPH-dependent inactivation of CYP3A4/5
IC50 (CYP3A4/5 [3]; pH 7.4, probe midazolam): 9.67 µM
IC50 (CYP3A4/5 [3]; pH 7.4, probe testosterone): > 100 µM
CLint scaled [4]: 2.85 L/h/kg
IC50 (CYP2D6): 2.95 µM
IC50 [15]: < 0.01 µM
CYP2B6 % Positive Control (CYP2B6; 1 μM): 25.5%
CYP2B6 % Positive Control (CYP2B6; 10 μM): 52.2%
CYP2C9 % Positive Control (CYP2C9 [5]; 1 μM): 50.4%
CYP2C9 % Positive Control (CYP2C9 [5]; 10 μM): 76.3%
CLint scaled [6]: 3.85 L/h/kg
CLint scaled [7]: 4.49 L/h/kg
IC50 (CYP1A [8]): > 100 µM
CYP3A % Positive Control (CYP3A; 1 μM): 18.1%
CYP3A % Positive Control (CYP3A; 10 μM): 33.8%
IC50 (CYP2C9 [9]): 75.7 µM
% Cell Remaining vs. Control ([10]; 1 μM): 103.19%
% Cell Remaining vs. Control ([10]; 10 μM): 97.49%
CYP1A % Positive Control (CYP1A [11]; 1 μM): 3.0%
CYP1A % Positive Control (CYP1A [11]; 10 μM): 4.4%
CLint scaled [12]: 3.28 L/h/kg
reversible CYP inhibition (in words) [13]: potentially significant inhibition of CYP2D6 and CYP3A4 (midazolam)
